# Read-outs that look alike come from different tables or passages of the source.
# Columns and labels:
# human OATP1B3 = molecular target: T1, human OATP1B3 (Homo sapiens, UniProt Q9NPD5); assay: In vitro transporter inhibition; format: in vitro ADME
# T1 sequence (Q9NPD5 1-702): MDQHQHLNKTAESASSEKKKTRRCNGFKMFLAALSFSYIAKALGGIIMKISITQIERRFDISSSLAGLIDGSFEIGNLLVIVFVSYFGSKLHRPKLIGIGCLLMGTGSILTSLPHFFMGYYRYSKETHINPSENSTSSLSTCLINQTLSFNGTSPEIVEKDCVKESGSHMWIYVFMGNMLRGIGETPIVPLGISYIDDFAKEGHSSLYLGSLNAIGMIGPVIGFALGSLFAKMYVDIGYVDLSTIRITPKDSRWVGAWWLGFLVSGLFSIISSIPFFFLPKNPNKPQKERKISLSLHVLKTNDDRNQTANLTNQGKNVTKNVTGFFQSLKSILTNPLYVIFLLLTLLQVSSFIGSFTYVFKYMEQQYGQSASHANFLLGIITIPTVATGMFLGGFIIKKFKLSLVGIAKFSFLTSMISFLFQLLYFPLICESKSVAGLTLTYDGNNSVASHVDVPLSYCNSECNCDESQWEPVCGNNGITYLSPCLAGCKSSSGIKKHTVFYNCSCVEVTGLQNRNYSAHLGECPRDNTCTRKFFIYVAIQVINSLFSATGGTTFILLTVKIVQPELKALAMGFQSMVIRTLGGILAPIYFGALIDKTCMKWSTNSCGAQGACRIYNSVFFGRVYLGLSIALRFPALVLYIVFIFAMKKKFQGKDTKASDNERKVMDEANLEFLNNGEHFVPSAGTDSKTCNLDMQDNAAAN
# Description: In vitro drug interaction studies were performed with human transporters. […] Potential interactions with inhibitors of the OAT1 transporter were considered clinically irrelevant.
# plasma NH3 [1] = conditions: cited from earlier work
# [2] = Nonclinical safety study in rats: exposure; conditions: rat, in vivo
# [3] = Adverse reactions in retrospective studies of patients with NAGS deficiency, PA, MMA or IVA; format: in vivo, human; conditions: Total Population = 80
# Excerpt: Sixty-one percent (61%) of patients were male and 39% of patients were female. In patients with PA, MMA or IVA (48% male and 52% female patients), 57% of decompensation episodes occurred during the first 4 weeks after birth (neonates), and 43% of decompensation episodes occurred beyond the neonatal period. The median age at the start of the decompensation episode was 12 days.
# plasma NH3 [4] = assay: Retrospective review of PA, MMA, IVA decompensation episodes: plasma NH3 and clinical findings; format: in vivo, human
# Description: […] […] Plasma ammonia (NH3) levels were measured up to a maximum of 15 days from the start of treatment. […] Concomitant standard of care therapies included carnitine, arginine, hydroxocobalamin, biotin, thiamine, riboflavin and glucose.
# [5] = Exposure previously observed in HVs following oral administration; conditions: human, in vivo, read-out: Highest AUC previously observed
# [6] = in most cases, carglumic acid alone, 13 episodes
# [7] = second block headed All (N = 5), First 24 hrs
# [8] = second block headed All (N = 5), First 48 hrs
smiles,measurement,setting,value
"NC(=O)N[C@@H](CCC(=O)O)C(=O)O [carglumic acid, N-carbamoyl-L-glutamic acid]",Inhibition of human OATP1B3 uptake transporter,human OATP1B3,not an inhibitor
same,"Plasma NH3 level, Mean (SD)","plasma NH3 [1]; All episodes, First 24 hrs",94.6 (47.6) micromol/L
same,"Plasma NH3 level, Median","plasma NH3 [1]; All episodes, First 24 hrs",100.0 µmol/L
same,"Plasma NH3 level, Min-Max","plasma NH3 [1]; All episodes, First 24 hrs",43.3 to 187.9 µmol/L
same,"Plasma NH3 level, Q1-Q3","plasma NH3 [1]; All episodes, First 24 hrs",50.0 to 110.5 µmol/L
same,"Plasma NH3 level, Mean (SD)","plasma NH3 [1]; All episodes, First 48 hrs",80.5 (43.4) micromol/L
same,"Plasma NH3 level, Median","plasma NH3 [1]; All episodes, First 48 hrs",66.0 µmol/L
same,"Plasma NH3 level, Min-Max","plasma NH3 [1]; All episodes, First 48 hrs",32.0 to 187.9 µmol/L
same,"Plasma NH3 level, Q1-Q3","plasma NH3 [1]; All episodes, First 48 hrs",50.0 to 100.0 µmol/L
same,"Plasma NH3 level, Mean (SD)","plasma NH3 [1]; Non-Neonates, First 24 hrs",106.1 (56.6) micromol/L
same,"Plasma NH3 level, Median","plasma NH3 [1]; Non-Neonates, First 24 hrs",100.0 µmol/L
same,"Plasma NH3 level, Min-Max","plasma NH3 [1]; Non-Neonates, First 24 hrs",47.6 to 187.9 µmol/L
same,"Plasma NH3 level, Q1-Q3","plasma NH3 [1]; Non-Neonates, First 24 hrs",50.0 to 170.0 µmol/L
same,"Plasma NH3 level, Mean (SD)","plasma NH3 [1]; Non-Neonates, First 48 hrs",81.8 (52.2) micromol/L
same,"Plasma NH3 level, Median","plasma NH3 [1]; Non-Neonates, First 48 hrs",58.0 µmol/L
same,"Plasma NH3 level, Min-Max","plasma NH3 [1]; Non-Neonates, First 48 hrs",32.0 to 187.9 µmol/L
same,"Plasma NH3 level, Q1-Q3","plasma NH3 [1]; Non-Neonates, First 48 hrs",48.8 to 110.5 µmol/L
same,Time within which a marked reduction in plasma NH3 levels was observed,plasma NH3 [1]; [6],≤ 6 h
same,Time within which plasma NH3 values were normalized,plasma NH3 [1]; [6],≤ 30 h
same,"Plasma NH3 level, Mean (SD)",plasma NH3 [1]; [7],78.5 (29.6) micromol/L
same,"Plasma NH3 level, Median",plasma NH3 [1]; [7],100.0 µmol/L
same,"Plasma NH3 level, Min-Max",plasma NH3 [1]; [7],42.3 to 100.0 µmol/L
same,"Plasma NH3 level, Q1-Q3",plasma NH3 [1]; [7],50.0 to 100.0 µmol/L
same,"Plasma NH3 level, Mean (SD)",plasma NH3 [1]; [8],78.5 (29.6) micromol/L
same,"Plasma NH3 level, Median",plasma NH3 [1]; [8],100.0 µmol/L
same,"Plasma NH3 level, Min-Max",plasma NH3 [1]; [8],42.3 to 100.0 µmol/L
same,"Plasma NH3 level, Q1-Q3",plasma NH3 [1]; [8],50.0 to 100.0 µmol/L
same,AUC,"[2]; read-out: AUC, exposure previously observed",258 µg·h/mL
same,Cmax,"[2]; read-out: Cmax, exposure previously observed",52 µg/mL
same,"Adverse reaction Abdominal pain, Number of Patients (N) (%)",[3],4 (5%) N (%)
same,"Adverse reaction Anemia, Number of Patients (N) (%)",[3],4 (5%) N (%)
same,"Adverse reaction Anorexia, Number of Patients (N) (%)",[3],2 (3%) N (%)
same,"Adverse reaction Diarrhea, Number of Patients (N) (%)",[3],5 (5%) N (%)
same,"Adverse reaction Dysgeusia, Number of Patients (N) (%)",[3],2 (3%) N (%)
same,"Adverse reaction Ear infection, Number of Patients (N) (%)",[3],3 (4%) N (%)
same,"Adverse reaction Headache, Number of Patients (N) (%)",[3],3 (4%) N (%)
same,"Adverse reaction Hemoglobin decreased, Number of Patients (N) (%)",[3],2 (3%) N (%)
same,"Adverse reaction Hyperhidrosis, Number of Patients (N) (%)",[3],2 (3%) N (%)
same,"Adverse reaction Infection, Number of Patients (N) (%)",[3],3 (4%) N (%)
same,"Adverse reaction Influenza, Number of Patients (N) (%)",[3],2 (3%) N (%)
same,"Adverse reaction Jaundice, Number of Patients (N) (%)",[3],2 (3%) N (%)
same,"Adverse reaction Nasopharyngitis, Number of Patients (N) (%)",[3],3 (4%) N (%)
same,"Adverse reaction Nervous system disorder, Number of Patients (N) (%)",[3],2 (3%) N (%)
same,"Adverse reaction Pneumonia, Number of Patients (N) (%)",[3],2 (3%) N (%)
same,"Adverse reaction Pyrexia, Number of Patients (N) (%)",[3],7 (9%) N (%)
same,"Adverse reaction Rash, Number of Patients (N) (%)",[3],2 (3%) N (%)
same,"Adverse reaction Somnolence, Number of Patients (N) (%)",[3],2 (3%) N (%)
same,"Adverse reaction Tonsillitis, Number of Patients (N) (%)",[3],4 (5%) N (%)
same,"Adverse reaction Transaminase increased, Number of Patients (N) (%)",[3],2 (3%) N (%)
same,"Adverse reaction Vomiting, Number of Patients (N) (%)",[3],6 (8%) N (%)
same,"Adverse reaction Weight decreased, Number of Patients (N) (%)",[3],2 (3%) N (%)
same,Mean reduction in plasma NH3 levels from baseline,plasma NH3 [4]; 36-48 hours from treatment initiation,−63%
same,Differences in plasma ammonia level reduction between pediatric and adult patients with PA or MMA,"plasma NH3 [4]; 51 patients (27 PA, 24 MMA)",no apparent differences
same,Median change in the number of clinical findings from baseline to endpoint,"plasma NH3 [4]; clinical, laboratory, neurological, psychiatric, respiratory findings and feeding difficulties",−4.0
same,Normalization of the neurological findings,"plasma NH3 [4]; human, in vivo",50 % of episodes
same,AUC,[5],30.7 µg·h/mL

# — US20220040129A1, “TREATMENT OF HYPERAMMONEMIA IN PATIENTS WITH RENAL INSUFFICIENCY” (RECORDATI S.p.A., priority 2019, published 2022)
